The target in one experiment is T1, hGLP1R (Homo sapiens, UniProt P43220).
T1 construct: expressed in transfected cells; host or cells: HEK-293 CRE-luciferase reporter cells
In words: hGLP1R CreLuc assay in 0.5% and 100% plasma (HEK-293 CRE-luciferase reporter cells). Type of experiment: cell-based. The conditions noted are these: HEK-293 reporter cells. The source says:
CHO and HEK-293 recombinant cell lines express a luciferase reporter gene under control of the CAMP responsive element (CRE). As a second recombinant protein the GLP-1 and NPY2 receptors were expressed in the reporter gene HEK cells, and the GIP receptor was expressed in the reporter gene CHO cells, respectively. Stimulation of these recombinant cells with an agonist leads to an increase of intracellular CAMP levels. In the presence of CAMP, the transcription factor CRE binding protein (CREB) binds to the CRE and to the CREB binding protein (CBP), which leads to transcription of the luciferase reporter gene. Peptides upon serial-dilution in 100% DMSO were transferred into 384-well assay plates with 5 μl pre-dispensed assay buffer (1×HBSS, 20 mM HEPES, pH7.4 supplemented with 0.5% human plasma) using acoustic dispensing on a Labcyte ECHO. Cryo-preserved transgenic reporter gene cells were thawed in assay buffer. 20 μl (10.000 cells/well) were added to the plate with the peptides and incubated for 4 hours at 37° C. in a humidified incubator. Following incubation, assay plates are equilibrated to room temperature, followed by addition of 25 μl of Bright-Glo™ Luciferase reagent, incubation at room temperature for 10 minutes and analysis of luminescence (Envision Reader). […] EC50 values were calculated by non-linear regression using sigmoid concentration-response with variable slope.
The same assays were run in the presence of 100% plasma with no additional buffer constituents.
On the technique in general: A reporter such as luciferase makes a cellular process visible.

Another experiment has as its target T2, hGIPR (Homo sapiens, UniProt P48546).
T2 construct: expressed in transfected cells; host or cells: CHO CRE-luciferase reporter cells
T2 sequence (P48546 22-466): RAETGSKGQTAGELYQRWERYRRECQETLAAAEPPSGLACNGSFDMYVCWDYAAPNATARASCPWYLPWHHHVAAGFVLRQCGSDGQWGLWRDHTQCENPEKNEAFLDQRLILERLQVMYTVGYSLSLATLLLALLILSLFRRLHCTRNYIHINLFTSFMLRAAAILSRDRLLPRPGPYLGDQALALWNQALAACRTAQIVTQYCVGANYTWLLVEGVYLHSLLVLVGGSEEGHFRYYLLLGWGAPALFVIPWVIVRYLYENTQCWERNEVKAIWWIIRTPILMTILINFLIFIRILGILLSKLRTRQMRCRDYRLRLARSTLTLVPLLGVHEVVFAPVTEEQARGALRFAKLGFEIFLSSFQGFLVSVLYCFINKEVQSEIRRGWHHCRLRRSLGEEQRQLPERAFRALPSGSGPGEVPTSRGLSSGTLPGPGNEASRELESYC
Description: hGIPR CreLuc assay in 0.5% and 100% plasma (CHO CRE-luciferase reporter cells). Type of experiment: cell-based.

[1] abbreviates: 0.5% human plasma, read-out: hGLP1R 0.5% hP.
The mark [2] stands for this setting: 0.5% human plasma, read-out: hGIPR 0.5% hP.
Where [3] appears, read: 100% human plasma, read-out: hGIPR 100% hP.

Molecules are shown by their SMILES. Like-named read-outs stand apart in the source and are kept apart here. *1 amine or outer side, *2 acyl side, *3 side chain or, on linkers, in order; H or OH if unused. Where a SMILES comes first, the peptide text is derived from it. Side-chain parts run from the residue outwards. [ ]: non-standard residue; d: D form. The star is where a group is joined. C18 diacid = O=C(O)CCCCCCCCCCCCCCCCC(=O)*; γGlu = O=C(O)[C@H](CCC(=O)[*:2])N[*:1]; εLys = N[C@@H](CCCCN[*:1])C(=O)[*:2]; Aib = CC(C)(N)C(=O)O

T1 sequence (P43220 24-463): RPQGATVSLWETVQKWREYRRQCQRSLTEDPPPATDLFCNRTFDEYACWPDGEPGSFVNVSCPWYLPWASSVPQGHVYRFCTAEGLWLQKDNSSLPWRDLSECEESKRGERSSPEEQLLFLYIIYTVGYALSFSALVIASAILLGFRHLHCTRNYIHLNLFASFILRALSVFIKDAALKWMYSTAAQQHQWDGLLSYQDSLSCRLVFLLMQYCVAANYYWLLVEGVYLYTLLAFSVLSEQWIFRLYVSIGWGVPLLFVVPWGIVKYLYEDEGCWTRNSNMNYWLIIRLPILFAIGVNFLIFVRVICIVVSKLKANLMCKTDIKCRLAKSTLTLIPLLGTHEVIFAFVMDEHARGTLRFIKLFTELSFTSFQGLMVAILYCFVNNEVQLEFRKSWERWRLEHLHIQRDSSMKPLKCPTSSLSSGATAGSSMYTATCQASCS

For `CC[C@H](C)[C@H](NC(=O)[C@H](CC(C)C)NC(=O)[C@H](Cc1c[nH]cn1)NC(=O)[C@H](CCCNC(=N)N)NC(=O)[C@@H](NC(=O)[C@H](Cc1ccccc1)NC(=O)[C@H](C)NC(=O)C(C)(C)NC(=O)[C@H](CCC(N)=O)NC(=O)[C@H](C)NC(=O)[C@H](CCC(N)=O)NC(=O)[C@H](CCCCN)NC(=O)[C@H](CCC(=O)O)NC(=O)[C@H](CC(C)C)NC(=O)C(C)(C)NC(=O)[C@@H](NC(=O)[C@H](CO)NC(=O)[C@H](Cc1ccc(O)cc1)NC(=O)[C@H](CC(=O)O)NC(=O)[C@H](CO)NC(=O)[C@@H](NC(=O)[C@H](Cc1ccccc1)NC(=O)[C@@H](NC(=O)CNC(=O)[C@H](CCC(=O)O)NC(=O)C(C)(C)NC(=O)[C@@H](N)Cc1ccc(O)cc1)[C@@H](C)O)[C@@H](C)O)[C@@H](C)CC)C(C)C)C(=O)N[C@@H](CC(N)=O)C(=O)N[C@@H](CCCCNC(=O)CC[C@H](NC(=O)CC[C@H](NC(=O)CC[C@H](NC(=O)CC[C@H](NC(=O)CC[C@H](NC(=O)CC[C@H](NC(=O)CCCCCCCCCCCCCCCCCCC(=O)O)C(=O)O)C(=O)O)C(=O)O)C(=O)O)C(=O)O)C(=O)O)C(=O)NC(C)(C)C(=O)N[C@H](C(=O)N[C@@H](CCCNC(=N)N)C(=O)N(C)[C@@H](CCC(N)=O)C(=O)N[C@@H](CCCNC(=N)N)C(=O)N[C@@H](Cc1ccc(O)cc1)C(N)=O)[C@@H](C)O` [Compound 114, Y-Aib-E-G-T-F-T-S-D-Y-S-I-Aib-L-E-K-Q-A-Q-Aib-A-F-V-R-H-L-I-N-K(1,3)-Aib-T-R-NMeQ-R-Y-NH2.C20DA-gGlu-gGlu-gGlu-gGlu-gGlu-gGlu(1,2)], the values for the EC50 on hGLP1R (setting [1]) and at hGIPR (setting [2]) were 1.8 nM and 0.5 nM, respectively.

`CC[C@H](C)[C@H](NC(=O)[C@H](C)NC(=O)[C@H](Cc1ccc(O)cc1)NC(=O)[C@H](CC(=O)O)NC(=O)[C@H](CO)NC(=O)[C@@H](NC(=O)[C@H](Cc1ccccc1)NC(=O)[C@@H](NC(=O)CNC(=O)[C@H](CCC(=O)O)NC(=O)C(C)(C)NC(=O)[C@@H](N)Cc1ccc(O)cc1)[C@@H](C)O)[C@@H](C)O)C(=O)NC(C)(C)C(=O)N[C@@H](CC(C)C)C(=O)N[C@@H](CCC(=O)O)C(=O)N[C@@H](CCCCN)C(=O)N[C@@H](CCC(N)=O)C(=O)N[C@@H](C)C(=O)N[C@@H](CCC(N)=O)C(=O)NC(C)(C)C(=O)N[C@@H](C)C(=O)N[C@@H](Cc1ccccc1)C(=O)N[C@H](C(=O)N[C@@H](CCCNC(=N)N)C(=O)N[C@@H](Cc1c[nH]cn1)C(=O)N[C@@H](CC(C)C)C(=O)N[C@H](C(=O)N[C@@H](CC(N)=O)C(=O)N[C@@H](CCCCNC(=O)[C@@H](N)CCCCNC(=O)CC[C@H](NC(=O)CC[C@H](NC(=O)CC[C@H](NC(=O)CC[C@H](NC(=O)CC[C@H](NC(=O)CC[C@H](NC(=O)CCCCCCCCCCCCCCCCC(=O)O)C(=O)O)C(=O)O)C(=O)O)C(=O)O)C(=O)O)C(=O)O)C(=O)NC(C)(C)C(=O)N[C@H](C(=O)N[C@@H](CCCNC(=N)N)C(=O)N[C@@H](CCC(N)=O)C(=O)N[C@@H](CCCNC(=N)N)C(=O)N[C@@H](Cc1ccc(O)cc1)C(N)=O)[C@@H](C)O)[C@@H](C)CC)C(C)C` [Compound 142, Y-Aib-E-G-T-F-T-S-D-Y-A-I-Aib-L-E-K-Q-A-Q-Aib-A-F-V-R-H-L-I-N-K(1,3)-Aib-T-R-Q-R-Y-NH2.C18DA-gGlu-gGlu-gGlu-gGlu-gGlu-gGlu-eLys(1,2)]: the EC50 on hGLP1R (100% human plasma, read-out: hGLP1R 100% hP) was found to be 8 nM; at hGIPR (setting [2]) it was 0.3 nM; on hGIPR (setting [3]), 3.4 nM.

Consider `CC[C@H](C)[C@H](NC(=O)[C@H](CC(C)C)NC(=O)[C@H](Cc1c[nH]cn1)NC(=O)[C@H](CCCNC(=N)N)NC(=O)[C@@H](NC(=O)[C@H](Cc1ccccc1)NC(=O)[C@H](C)NC(=O)C(C)(C)NC(=O)[C@H](CCC(N)=O)NC(=O)[C@H](C)NC(=O)[C@H](CCC(N)=O)NC(=O)[C@H](CCCNC(=N)N)NC(=O)[C@H](CC(=O)O)NC(=O)[C@H](CC(C)C)NC(=O)C(C)(C)NC(=O)[C@@H](NC(=O)[C@H](CO)NC(=O)[C@H](Cc1ccc(O)cc1)NC(=O)[C@H](CC(=O)O)NC(=O)[C@H](CO)NC(=O)[C@@H](NC(=O)[C@H](Cc1ccccc1)NC(=O)[C@@H](NC(=O)CNC(=O)[C@H](CCC(=O)O)NC(=O)C(C)(C)NC(=O)[C@@H](N)Cc1ccc(O)cc1)[C@@H](C)O)[C@@H](C)O)[C@@H](C)CC)C(C)C)C(=O)N[C@@H](CC(N)=O)C(=O)N[C@@H](CCCCNC(=O)[C@@H](N)CCCCNC(=O)CC[C@H](NC(=O)CC[C@H](NC(=O)CC[C@H](NC(=O)CC[C@H](NC(=O)CC[C@H](NC(=O)CC[C@H](NC(=O)CCCCCCCCCCCCCCCCC(=O)O)C(=O)O)C(=O)O)C(=O)O)C(=O)O)C(=O)O)C(=O)O)C(=O)NC(C)(C)C(=O)N[C@H](C(=O)N[C@@H](CCCNC(=N)N)C(=O)N[C@@H](CCC(N)=O)C(=O)N[C@@H](CCCNC(=N)N)C(=O)N[C@@H](Cc1ccc(O)cc1)C(N)=O)[C@@H](C)O` [Compound 147, Y-Aib-E-G-T-F-T-S-D-Y-S-I-Aib-L-D-R-Q-A-Q-Aib-A-F-V-R-H-L-I-N-K(1,3)-Aib-T-R-Q-R-Y-NH2.C18DA-gGlu-gGlu-gGlu-gGlu-gGlu-gGlu-eLys(1,2)] (H-Y[Aib]EGTFTSDYSI[Aib]LDRQAQ[Aib]AFVRHLINK([εLys-γGlu-γGlu-γGlu-γGlu-γGlu-γGlu-C18 diacid])[Aib]TRQRY-NH2), for which the EC50 worked out at 0.3 nM on hGLP1R (setting [1]), 0.2 nM at hGIPR (setting [2]) and 5 nM on hGIPR (setting [3]).

Consider `CC[C@H](C)[C@H](NC(=O)[C@H](CO)NC(=O)[C@H](Cc1ccc(O)cc1)NC(=O)[C@H](CC(=O)O)NC(=O)[C@H](CO)NC(=O)[C@@H](NC(=O)[C@H](Cc1ccccc1)NC(=O)[C@@H](NC(=O)CNC(=O)[C@H](CCC(=O)O)NC(=O)C(C)(C)NC(=O)[C@@H](N)Cc1ccc(O)cc1)[C@@H](C)O)[C@@H](C)O)C(=O)NC(C)(C)C(=O)N[C@@H](CC(C)C)C(=O)N[C@@H](CC(=O)O)C(=O)N[C@@H](CCCCN)C(=O)N[C@@H](CCC(N)=O)C(=O)N[C@@H](C)C(=O)N[C@@H](CCC(N)=O)C(=O)NC(C)(C)C(=O)N[C@@H](C)C(=O)N[C@@H](Cc1ccccc1)C(=O)N[C@H](C(=O)N[C@@H](CCCNC(=N)N)C(=O)N[C@@H](Cc1c[nH]cn1)C(=O)N[C@@H](CC(C)C)C(=O)N[C@@H](CC(C)C)C(=O)N[C@@H](CC(N)=O)C(=O)N[C@@H](CCCCNC(=O)[C@@H](N)CCCCNC(=O)CC[C@H](NC(=O)CC[C@H](NC(=O)CC[C@H](NC(=O)CC[C@H](NC(=O)CC[C@H](NC(=O)CC[C@H](NC(=O)CCCCCCCCCCCCCCCCC(=O)O)C(=O)O)C(=O)O)C(=O)O)C(=O)O)C(=O)O)C(=O)O)C(=O)NC(C)(C)C(=O)N[C@H](C(=O)N[C@@H](CCCNC(=N)N)C(=O)N[C@@H](CCC(N)=O)C(=O)N[C@@H](CCCNC(=N)N)C(=O)N[C@@H](Cc1ccc(O)cc1)C(N)=O)[C@@H](C)O)C(C)C` [Compound 173, Y-Aib-E-G-T-F-T-S-D-Y-S-I-Aib-L-D-K-Q-A-Q-Aib-A-F-V-R-H-L-L-N-K(1,3)-Aib-T-R-Q-R-Y-NH2.C18DA-gGlu-gGlu-gGlu-gGlu-gGlu-gGlu-eLys(1,2)], for which the EC50 on hGLP1R (setting [1]) worked out at 0.2 nM; at hGIPR (setting [2]), 0.7 nM.

Source of the values: patent US20250382344A1, “Soluble GLP1/GIP/NPY2 Receptor Triple Agonists” (Boehringer Ingelheim International GmH, priority 2024, published 2025).
